Usually IC50 stands for the midpoint of a concentration-inhibition curve.

Structures are written as SMILES.

Data on three compounds can be found in ChEMBL document CHEMBL1140521, “Enhanced efficacy of 7-hydroxy-3-methoxycadalene via glycosylation in in vivo xenograft study” (Bioorg Med Chem Lett, 2007).

Experiment [1] concerns A549. As to the kind of experiment: Cytotoxicity against human A549 cells after 24 hrs by WST8 assay. It is filed as functional, cell-based. Conditions: A549, 24 h. A general note: Tetrazolium assays rely on reduction of a dye to a coloured formazan, in cell work by metabolically active cells.
The next experiment has as its system HeLa. As to the kind of experiment: Cytotoxicity against human HeLa cells after 24 hrs by WST8 assay. The class given is functional, cell-based.
Experiment [2] deals with A549. As to the kind of experiment: Antitumor activity against human A549 cells xenografted athymic BALB/c mouse assessed as reduction in tumor volume at 100 mg/kg/day, po for 28 days. The class given is functional. Further details: scale not given: the % may be the effect or the level left. A general note: Xenograft models place foreign cells or tissue in a host animal.

In the case of `COc1cc(C)c2cc(O[C@@H]3O[C@H](CO)[C@@H](O)[C@H](O)[C@H]3O)c(C)cc2c1C(C)C`, the values for the half-inhibitory concentration (IC50) with A549 [1] and in the experiment with HeLa were 194 µM and 231 µM, respectively. Moreover, the Activity with A549 [2] was found to be 50%.
Take `COc1cc(C)c2cc(OCCO[C@H]3O[C@H](CO)[C@@H](O)[C@H](O)[C@H]3O)c(C)cc2c1C(C)C`: the figures for the half-maximal inhibitory concentration (IC50) in the experiment on A549 [1] and in the experiment with HeLa were 129 µM and 161 µM, respectively. In the experiment with A549 [2], the Activity worked out at 25%.
Turning to `COc1cc(C)c2cc(O)c(C)cc2c1C(C)C` [CADALENE], the 50% inhibitory concentration (IC50) with A549 [1] was determined as 34.9 µM; with HeLa, 28.3 µM.
